Reference: patent US9040502B2, “Anti-XDR-TB drug, anti-MDR-TB drug, and combination anti-tuberculosis drug” (priority 2008, dated 2015)
In brackets after ≈: the same amount, converted by molar mass. Like-named read-outs stand apart in the source and are kept apart here.

What was measured:
[1] = tested on: M. tuberculosis MDR (RFP, INH); test: MIC, agar multiple dilution method (Test Example 2); type: cell-based; settings: Mycobacterium tuberculosis, 336 h
[2] = tested on: M. tuberculosis MDR (RFP, INH, KM EB, TH, PAS, EVM); test: as above; type: cell-based; settings: Mycobacterium tuberculosis, 336 h
[3] = tested on: M. tuberculosis MDR (RFP, INH, KM, SM EB, TH); test: as above; type: cell-based; settings: Mycobacterium tuberculosis, 336 h
[4] = tested on: M. tuberculosis XDR-TB (0306-0206); type: in vivo, Mycobacterium tuberculosis in BALB/c mice; settings: BALB/c mice, i.v. infection; s.c., 14 doses; CPZEN-45 6.3-200 mg/kg, SM 25-200 mg/kg; Day 30
[5] = tested on: M. tuberculosis XDR (RFP, INH, KM EB, TH, PAS, EVM, LVFX); test: MIC, agar multiple dilution method (Test Example 2); type: cell-based; settings: Mycobacterium tuberculosis, 336 h
[6] = tested on: Mycobacterium tuberculosis XDR-TB (0306-0206); type: cell-based; settings: Ratio Method

## CCCCc1ccc(NC(=O)C2=CCN(C)[C@@H]([C@H](O[C@@H]3O[C@H](CN)[C@@H](O)[C@H]3O)[C@H]3O[C@@H](n4ccc(=O)[nH]c4=O)[C@H](O)[C@@H]3O)C(=O)N2C)cc1 [CPZEN-45, (S)-2-{[(2S,3R,4S,5R)-(5-aminomethyl-3,4-dihydroxyoxolan-2-yl)oxy][(2S,3S,4R,5R)-5-(2,4-dioxo-1,2,3,4-tetrahydropyrimidin-1-yl)-3,4-dihydroxyoxolan-2-yl]-(S)-methyl}-N-(4-butylphenyl)-1,4-dimethyl-3-oxo-1H-1,4-diazepine-5-carboxamide]
[1]
  MIC: 6.25 µg/mL (≈ 9.07 µM)
[2]
  MIC: 6.25 µg/mL (≈ 9.07 µM)
[3]
  MIC: 6.25 µg/mL (≈ 9.07 µM)
[4]
  Antibacterial effects (number of tuberculosis bacteria in lungs, liver and spleen, FIGS. 3 to 5): antibacterial effects significantly higher than those of SM
[5]
  MIC: 6.25 µg/mL (≈ 9.07 µM)

## N[C@@H]1CON=C1O [CS, cycloserine]
[6]; drug concentration 30 μg/mL
  Determination (drug sensitivity): S

## CC[C@@H](CO)NCCN[C@@H](CC)CO [EB, ethambutol]
[6]; drug concentration 2.5 μg/mL
  Determination (drug sensitivity): R

## NNC(=O)c1ccncc1 [INH, isonicotinic acid hydrazide]
[6]; drug concentration 1.0 μg/mL
  Determination (drug sensitivity): R

## NC[C@H]1O[C@H](O[C@H]2[C@H](O)[C@@H](O[C@H]3O[C@H](CO)[C@@H](O)[C@H](N)[C@H]3O)[C@H](N)C[C@@H]2N)[C@H](O)[C@@H](O)[C@@H]1O [KM, kanamycin]
[6]; drug concentration 20 μg/mL
  Determination (drug sensitivity): R

## C[C@H]1COc2c(N3CCN(C)CC3)c(F)cc3c(=O)c(C(=O)O)cn1c23 [LVFX, levofloxacin]
[6]; drug concentration 1.0 μg/mL
  Determination (drug sensitivity): R

## Nc1ccc(C(=O)O)c(O)c1 [PAS, para-amino-salicylic acid]
[6]; drug concentration 0.5 μg/mL
  Determination (drug sensitivity): R

## CO[C@H]1/C=C/O[C@@]2(C)Oc3c(C)c(O)c4c(O)c(c(/C=N/N5CCN(C)CC5)c(O)c4c3C2=O)NC(=O)/C(C)=C\C=C\[C@H](C)[C@H](O)[C@@H](C)[C@@H](O)[C@@H](C)[C@H](OC(C)=O)[C@@H]1C [RFP, rifampicin]
[1]
  MIC: > 40 µg/mL
[2]
  MIC: > 40 µg/mL
[6]; drug concentration 40 μg/mL
  Determination (drug sensitivity): R
[3]
  MIC: > 40 µg/mL
[5]
  MIC: > 40 µg/mL

## [H]/N=C(/N)N[C@H]1[C@H](O)[C@@H](O)[C@H](O[C@@H]2O[C@@H](C)[C@](O)(C=O)[C@H]2O[C@@H]2O[C@@H](CO)[C@H](O)[C@@H](O)[C@@H]2NC)[C@@H](N/C(N)=N\[H])[C@@H]1O [SM, streptomycin]
[6]; drug concentration 10 μg/mL
  Determination (drug sensitivity): R
[4]
  Antibacterial effects (number of tuberculosis bacteria in lungs, liver and spleen, FIGS. 3 to 5): no antibacterial effects

## CCc1cc(C(N)=S)ccn1 [TH, ethionamide]
[6]; drug concentration 20 μg/mL
  Determination (drug sensitivity): R

## enviomycin [EVM]
[6]; drug concentration 20 μg/mL
  Determination (drug sensitivity): R
